Consider 46 compounds from patent US20080293727A1, “Novel sulfonamide inhibitors of aspartyl protease” (priority 1992, published 2008).

pKi: −log10 of the molar value.

The experiment has as its target HIV-1 protease (Human immunodeficiency virus type 1 group M subtype B, UniProt P04585). Description: Inhibition constants against HIV-1 protease (method of Pennington et al.). The format is biochemical. As to conditions: HIV-1 protease; read-out: Ki value. The source says: We measured the inhibition constants of the compounds listed in Table VII against HIV-1 protease using the above-cited method of Pennington et al.

By pKi is commonly meant −log10 of the Ki, conventionally taken in molar units. Turning to `COc1ccc(S(=O)(=O)N(CC(C)C)C[C@@H](O)[C@H](Cc2ccccc2)NC(=O)OCc2cccnc2)cc1` [Compound 153], the pKi is 9.70.

As to `CN(C)S(=O)(=O)N(Cc1ccccc1)C[C@@H](O)[C@H](Cc1ccccc1)NC(=O)[C@H](CC(N)=O)NC(=O)c1ccc2ccccc2n1` [Compound 11], the pKi is 7.47.

Consider `COc1ccc(S(=O)(=O)N(CC2CCCC2)C[C@@H](O)[C@H](Cc2ccccc2)NC(=O)O[C@H]2CCOC2)cc1` [Compound 140, N-cyclopentylmethyl-N-((2 syn,3S)-2-hydroxy-4-phenyl-3-((S)-tetrahydrofuran-3-yloxycarbonylamino)-butyl)-4-methoxy-benzenesulfonamide], for which the pKi is greater than 10.00.

For the compound `Nc1ccc(S(=O)(=O)N(CC2CCCC2)C[C@@H](O)[C@H](Cc2ccccc2)NC(=O)O[C@H]2CCOC2)c(N)c1` [Compound 173, 2,4-Diamino-N-cyclopentylmethyl-N-((2 syn,3S)-2-hydroxy-4-phenyl-3-((S)-tetrahydrofuran-3-yloxycarbonylamino)-butyl)-benzenesulfonamide], the pKi was 9.22.

Take `CC(C)CN(C[C@@H](O)[C@H](Cc1ccccc1)NC(=O)OC(C)(C)C)S(=O)(=O)c1ccc(F)cc1F` [Compound 49]: the pKi is 8.05.

In the case of `CC(C)CN(C[C@@H](O)[C@H](Cc1ccccc1)NC(=O)OC(C)(C)C)S(=O)(=O)c1cccc2nonc12` [Compound 58], the pKi is 7.47.

For the compound `CC(=O)Nc1ccc(S(=O)(=O)N(CC(C)C)C[C@@H](O)[C@H](Cc2ccccc2)NC(=O)C[C@H]2CNC(=O)C2)cc1` [Compound 1002], the pKi is 7.55.

For the compound `CC(C)CN(C[C@@H](O)[C@H](Cc1ccccc1)NC(=O)OC(C)(C)C)S(=O)(=O)c1ccc2nonc2c1` [Compound 64], the pKi is 8.52.

As for `O=C(N[C@@H](Cc1ccccc1)[C@H](O)CN(CC1CCCC1)S(=O)(=O)c1ccc(Cl)c(Cl)c1)O[C@H]1CCOC1` [Compound 183, 3,4-Dichloro-N-cyclopentylmethyl-N-((2 syn,3S)-2-hydroxy-4-phenyl-3-((S)-tetrahydrofuran-3-yloxycarbonylamino)-butyl)-benzenesulfonamide], the pKi is 10.00.

In the case of `CC(=O)Nc1ccc(S(=O)(=O)N(CC(C)C)C[C@@H](O)[C@H](Cc2ccccc2)NC(=O)[C@@H](NC(=O)OCc2ccccn2)C(C)C)cc1` [Compound 22], the pKi was 9.00.

Turning to `CC(=O)Nc1ccc(S(=O)(=O)N(CC(C)C)C[C@@H](O)[C@H](Cc2ccccc2)NC(=O)C(C)(C)NC(=O)OC(C)(C)C)cc1` [Compound 189], the pKi is 5.26.

As to `CC(C)CN(C[C@@H](O)[C@H](Cc1ccccc1)NC(=O)O[C@H]1CCOC1)S(=O)(=O)c1ccc(F)c(F)c1` [Compound 124], the pKi is 8.96.

Turning to `NC(=O)C[C@H](NC(=O)c1ccc2ccccc2n1)C(=O)N[C@@H](Cc1ccccc1)[C@H](O)CN(Cc1ccccc1)S(=O)(=O)c1ccccc1` [Compound 1], the pKi is 8.40.

With `C=CCCOC(=O)N[C@@H](Cc1ccccc1)[C@H](O)CN(CC(C)C)S(=O)(=O)c1ccc(NC(C)=O)cc1` [Compound 36], the pKi was 7.72.

For the compound `CC(=O)Nc1ccc(S(=O)(=O)N(CC(C)C)C[C@@H](O)[C@H](Cc2ccccc2)NC(=O)OCC(C)C)cc1` [Compound 28], the pKi was 7.77.

For `CC(=O)Nc1cc(S(=O)(=O)N(CC(C)C)C[C@@H](O)[C@H](Cc2ccccc2)NC(=O)c2cc(C(C)(C)C)nn2Cc2ccccc2)ccc1F` [Compound 55], the pKi was 6.37.

For the compound `COc1ccc(S(=O)(=O)N(CC2CCCC2)CC(O)C(Cc2ccccc2)NC(=O)OC2CCNC2)cc1` (stereo not shown) [Compound 185], the pKi is 8.46.

On to `O=C(N[C@@H](Cc1ccccc1)[C@H](O)CN(CC1CCCC1)S(=O)(=O)c1ccc(OC(F)(F)F)cc1)O[C@H]1CCOC1` [Compound 151], for which the pKi was 9.10.

As to `O=C(N[C@@H](Cc1ccccc1)[C@H](O)CN(CC1CCCC1)S(=O)(=O)c1ccc([N+](=O)[O-])cc1[N+](=O)[O-])O[C@H]1CCOC1` [Compound 172], the pKi is 7.68.

Turning to `CC(=O)Nc1ccc(S(=O)(=O)N(CC(C)C)C[C@@H](O)[C@H](Cc2ccccc2)NC(=O)CCC(N)=O)cc1` [Compound 42], the pKi is 7.34.

`CC(C)CN(CC(O)C(Cc1ccccc1)NC(=O)C(CC(N)=O)NC(=O)c1ccc2ccccc2n1)S(=O)(=O)c1ccc(-c2ccon2)s1` (stereo not shown) [Compound 194]: the pKi was 6.46.

For `CC(C)CN(C[C@@H](O)[C@H](Cc1ccccc1)NS(=O)(=O)N(C)C)S(=O)(=O)c1cccc2nonc12` [Compound 71], the pKi was 6.33.

For `O=C(N[C@@H](Cc1ccccc1)[C@H](O)CN(CC1CCCC1)S(=O)(=O)c1ccc(O)cc1)OCc1cccnc1` [Compound 166, N-cyclopentylmethyl-4-hydroxy-N-((2 syn,3S)-2-hydroxy-4-phenyl-3-(pyridin-3-yl-methoxycarbonylamino)-butyl)-benzenesulfonamide], the pKi is greater than 10.00.

For `CS(=O)(=O)N(Cc1ccccc1)C[C@@H](O)[C@H](Cc1ccccc1)NC(=O)[C@H](CC(N)=O)NC(=O)c1ccc2ccccc2n1` [Compound 8], the pKi is 6.07.

For the compound `CC(C)CN(C[C@@H](O)[C@H](Cc1ccccc1)NC(=O)O[C@H]1CCOC1)S(=O)(=O)N1CCOCC1` [Compound 161], the pKi is 7.70.

Turning to `COc1ccc(COC(=O)N[C@@H](Cc2ccccc2)[C@H](O)CN(CC2CCCC2)S(=O)(=O)c2ccc(OC)cc2)cc1` [Compound 177], the negative-log Ki (pKi) is greater than 10.00.

Consider `CC(=O)Nc1ccc(S(=O)(=O)N(CC(C)C)C[C@@H](O)[C@H](Cc2ccccc2)NC(=O)OCc2ccccc2)cc1` [Compound 61], for which the pKi was 8.40.

With `CN(C[C@@H](O)[C@H](Cc1ccccc1)NC(=O)OC(C)(C)C)S(=O)(=O)c1ccc(F)cc1` [Compound 127], the pKi is 6.19.

`CC(C)CN(C[C@@H](O)[C@H](Cc1ccccc1)NC(=O)O[C@H]1CCOC1)S(=O)(=O)c1ccc(OCc2ccccc2)cc1` [Compound 174]: the pKi was 8.00.

As for `C=C(C)COC(=O)N[C@@H](Cc1ccccc1)[C@H](O)CN(CC(C)C)S(=O)(=O)c1ccc(F)cc1` [Compound 107], the pKi is 8.85.

For `CC(=O)Nc1cc(S(=O)(=O)N[C@@H](Cc2ccccc2)[C@H](O)CN(CC(C)C)S(=O)(=O)c2ccc(F)c(NC(C)=O)c2)ccc1F` [Compound 70], the negative-log Ki (pKi) was 7.60.

In the case of `CCCOC(=O)N[C@@H](Cc1ccccc1)[C@H](O)CN(CC(C)C)S(=O)(=O)c1ccc(Cl)c(Cl)c1` [Compound 89], the pKi is 8.70.

Turning to `C=CCOC(=O)N[C@@H](Cc1ccccc1)[C@H](O)CN(CC(C)C)S(=O)(=O)c1ccc(OC)cc1` [Compound 154], the pKi is 9.30.

Consider `C=C(C)CN(C[C@@H](O)[C@H](Cc1ccccc1)NC(=O)OC(C)(C)C)S(=O)(=O)c1ccc(F)cc1` [Compound 130], for which the pKi is 7.85.

For `O=C(N[C@@H](Cc1ccccc1)[C@H](O)CN(CC1CCCC1)S(=O)(=O)c1ccc([N+](=O)[O-])cc1)O[C@H]1CCOC1` [Compound 170, N-Cyclopentylmethyl-N-((2 syn,3S)-2-hydroxy-4-phenyl-3-((S)-tetrahydrofuran-3-yloxycarbonylamino)-butyl)-4-nitro-benzensulfonamide], the pKi is 9.70.

Consider `O=C(N[C@@H](Cc1ccccc1)[C@H](O)CN(CC1CCCC1)S(=O)(=O)c1cccnc1)O[C@H]1CCOC1` [Compound 149, Pyridine-3-sulfonic acid cyclopentylmethyl-((2 syn,3S)-2-hydroxy-4-phenyl-3-((S)-tetrahydrofuran-3-yloxycarbonylamino)-butyl)-amide], for which the pKi is 8.77.

As for `CCCOC(=O)N[C@@H](Cc1ccccc1)[C@H](O)CN(CC(C)C)S(=O)(=O)c1ccc(NC(C)=O)c(Cl)c1` [Compound 90], the pKi is 7.03.

Regarding `C=C(COC)COC(=O)N[C@@H](Cc1ccccc1)[C@H](O)CN(CC1CCCC1)S(=O)(=O)c1ccc(OC)cc1` [Compound 162], the pKi was 9.30.

On to `NC(=O)C[C@H](NC(=O)c1ccc2ccccc2n1)C(=O)N[C@@H](Cc1ccccc1)[C@H](O)CN(Cc1ccccc1)S(=O)(=O)c1cccc(C(F)(F)F)c1` [Compound 4], for which the negative-log Ki (pKi) was 7.72.

As to `NC(=O)C[C@H](NC(=O)c1ccc2ccccc2n1)C(=O)N[C@@H](Cc1ccccc1)[C@H](O)CN(Cc1ccccc1)S(=O)(=O)c1cccc(C(=O)O)c1` [Compound 7], the pKi is 8.10.

Take `CC(C)CN(C[C@@H](O)[C@H](Cc1ccccc1)NC(=O)[C@H](CC(N)=O)NC(=O)c1ccc2ccccc2n1)S(=O)(=O)c1ccc(F)cc1` [Compound 14, (S)-N-1-(1-(S)-Benzyl-3-((4-fluoro-benzenesulfonyl)-isobutyl-amino)-2-(syn)-hydroxy-propyl)-2-((quinoline-2-carbonyl)-amino)-succinamide]: the pKi is 10.00.

Take `CC(=O)Nc1ccc(S(=O)(=O)N(CC(C)C)C[C@@H](O)[C@H](Cc2ccccc2)NC(=O)[C@H](CC(N)=O)NC(=O)c2ccc3ccccc3n2)cc1F` [Compound 15, (S)-N-1-(3-((4-Acetylamino-3-fluoro-benzenesulfonyl)-isobutyl-amino)-(1S,2 syn)-1-benzyl-2-hydroxy-propyl)-2-((quinoline-2-carbonyl)-amino)-succinamide]: the pKi was greater than 10.00.

`CC(=O)Nc1ccc(S(=O)(=O)N(CC(C)C)C[C@@H](O)[C@H](Cc2ccccc2)NC(=O)C(=O)NC(C)(C)C)cc1` [Compound 41]: the pKi is 6.66.

Take `C=C(C)CN(C[C@@H](O)[C@H](Cc1ccccc1)NC(=O)O[C@H]1CCOC1)S(=O)(=O)c1ccc(NC(C)=O)cc1` [Compound 134]: the pKi is 8.08.

`CC(=O)Nc1ccc(S(=O)(=O)N(CC(C)C)CC(O)C(Cc2ccccc2)NC(=O)OCC2COC(=O)N2)cc1` (stereo not shown) [Compound 110]: the pKi is 7.55.

As for `CC(C)CN(C[C@@H](O)[C@H](Cc1ccccc1)NC(=O)OC[C@@H]1COC(=O)N1)S(=O)(=O)c1ccc(F)cc1` [Compound 109, 4-Fluoro-N-(2-(syn)-hydroxy-3-((2-oxazolidon-(S)-4-yl)-methoxycarbonylamino)-4-(S)-phenyl-butyl)-N-isobutyl-benzenesulfonamide], the pKi was 8.22.
